According to article PMC10940605, “Design, synthesis and in vitro anticancer activity of some new lomefloxacin derivatives” (Scientific Reports, 2024):

Legend:
Format in all cases: cell-based
[1] = test system: 60 human cancer cell lines; assay: NCI-60 SRB screen, whole panel; settings: for activity at 10 µM / LC50 / GI50 / inhibition at 10 µM: Homo sapiens; for activity at 10 µM: 48 h, One Dose Mean Graph, Conc 1.00E-5 Molar, read-out: Mean Growth Percent; for LC50 / Log10 TGI _MID: mean over panel, Units Molar; for LC50: read-out: Log10 LC50 _MID (converted); for GI50: mean over the cell line panel (_MID), Molar, read-out: Mean Log10 GI50 (converted); for inhibition at 10 µM: single dose 10^–5 M, 60 cell lines, read-out: mean percent growth inhibition
OVCAR-8 = assay: NCI-60 SRB screen; settings: Homo sapiens; OVCAR-8, 10^–5 Molar; read-out: Percent growth inhibition
Outline: (§1)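 Compound added at 10^−5 M final, 48 h at 37 °C. Fixed with cold TCA, stained with 0.4% SRB, read at […].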

MALME-3M = assay: NCI-60 SRB screen; settings: Homo sapiens, 10^–5 Molar, read-out: Percent growth inhibition
Outline: (§2)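 Testing used one 10^−5 M dose. Plates were incubated 48 h at 37 °C in 5% CO2 before fixation, staining with 0.4% (w/v) SRB in 1% acetic acid, solubilisation in trizma base and reading at […].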

SNB-75 = assay: NCI-60 SRB screen; settings: Homo sapiens; SNB-75, 10^–5 Molar; read-out: Percent growth inhibition
Outline: as §1

MDA-MB-435 = assay: NCI-60 SRB screen; settings: Homo sapiens; MDA-MB-435, 10^–5 Molar; read-out: Percent growth inhibition
Outline: as §2

MCF7 = assay: NCI-60 SRB screen; settings: Homo sapiens; MCF7, 10^–5 Molar; read-out: Percent growth inhibition
Outline: as §1

CCRF-CEM = assay: NCI-60 SRB screen; settings: Homo sapiens, 10^–5 Molar, read-out: Percent growth inhibition
Outline: as §1

HOP-62 = assay: NCI-60 SRB screen; settings: Homo sapiens; HOP-62, 10^–5 Molar; read-out: Percent growth inhibition
Outline: as §1

786-0 = assay: NCI-60 SRB screen; settings: Homo sapiens; 786-0, 10^–5 Molar; read-out: Percent growth inhibition
Outline: as §2

NCI-H23 = assay: NCI-60 SRB screen; settings: Homo sapiens; NCI-H23, 10^–5 Molar; read-out: Percent growth inhibition
Outline: as §1

SW-620 = assay: NCI-60 SRB screen; settings: Homo sapiens; SW-620, 10^–5 Molar; read-out: Percent growth inhibition
Outline: as §1

T-47D = assay: NCI-60 SRB screen; settings: Homo sapiens, T47D, 10^–5 Molar, read-out: Percent growth inhibition
Outline: as §2

SF-295 = assay: NCI-60 SRB screen; settings: Homo sapiens; SF-295, 10^–5 Molar; read-out: Percent growth inhibition
Outline: as §2

NCI-H226 = assay: NCI-60 SRB screen; settings: Homo sapiens; NCI-H226, 10^–5 Molar; read-out: Percent growth inhibition
Outline: as §2

PC-3 = assay: NCI-60 SRB screen; settings: Homo sapiens; PC-3, 10^–5 Molar; read-out: Percent growth inhibition
Outline: as §2

KM12 = assay: NCI-60 SRB screen; settings: Homo sapiens; KM12, 10^–5 Molar; read-out: Percent growth inhibition
Outline: as §2

HCT-15 = assay: NCI-60 SRB screen; settings: Homo sapiens; HCT-15, 10^–5 Molar; read-out: Percent growth inhibition
Outline: as §1

SN12C = assay: NCI-60 SRB screen; settings: Homo sapiens, 10^–5 Molar, read-out: Percent growth inhibition
Outline: as §2

UO-31 = assay: NCI-60 SRB screen; settings: Homo sapiens; UO-31, 10^–5 Molar; read-out: Percent growth inhibition
Outline: as §1

IGROV1 = assay: NCI-60 SRB screen; settings: Homo sapiens, IGROV-1; IGROV1, 10^–5 Molar; read-out: Percent growth inhibition
Outline: as §1

SF-268 = assay: NCI-60 SRB screen; settings: Homo sapiens; SF-268, 10^–5 Molar; read-out: Percent growth inhibition
Outline: as §2

K-562 = assay: NCI-60 SRB screen; settings: Homo sapiens, K562; K-562, 10^–5 Molar; read-out: Percent growth inhibition
Outline: as §2

OVCAR-3 = assay: NCI-60 SRB screen; settings: Homo sapiens; OVCAR-3, 10^–5 Molar; read-out: Percent growth inhibition

SMILES | activity at 10 µM [1] [%] | inhibition at 10 µM (OVCAR-8) [%] | inhibition at 10 µM (MALME-3M) [%] | inhibition at 10 µM (SNB-75) [%] | inhibition at 10 µM (MDA-MB-435) [%] | inhibition at 10 µM (MCF7) [%] | inhibition at 10 µM (CCRF-CEM) [%] | inhibition at 10 µM (HOP-62) [%] | inhibition at 10 µM (786-0) [%] | inhibition at 10 µM (NCI-H23) [%] | inhibition at 10 µM (SW-620) [%] | inhibition at 10 µM (T-47D) [%] | inhibition at 10 µM (SF-295) [%] | inhibition at 10 µM (NCI-H226) [%] | inhibition at 10 µM (PC-3) [%] | inhibition at 10 µM (KM12) [%] | inhibition at 10 µM (HCT-15) [%] | inhibition at 10 µM (SN12C) [%] | inhibition at 10 µM (UO-31) [%] | inhibition at 10 µM (IGROV1) [%] | also measured
CCn1cc(C(=O)NN=Cc2ccccc2)c(=O)c2cc(F)c(N3CCNC(C)C3)c(F)c21 (centres unmarked) [Compound 3a, N'-Benzylidene-1-ethyl-6,8-difluoro-7-(3-methylpiperazin-1-yl)-4-oxo-1,4-dihydroquinoline-3-carbohydrazide] | -2.19 | 71.6 | 178 | 7.18 | 188 | 184 | 152 | 31.4 | 167 | 31.5 | 181 | 36.4 | 91.1 | 12.6 | 51.1 | 189 | 186 | 38.3 | 52.5 | 42 | LC50 [1]: 5.89 µM; GI50 [1]: 1.7 µM; inhibition at 10 µM [1]: > 47%; Log10 TGI _MID [1]: -5.49; inhibition at 10 µM (SF-268): 61.1%; inhibition at 10 µM (K-562): 139%; inhibition at 10 µM (OVCAR-3): 175%
CCn1cc(C(=O)NN=Cc2ccc(Br)cc2)c(=O)c2cc(F)c(N3CCNC(C)C3)c(F)c21 (centres unmarked) [Compound 3c, N'-(4-Bromobenzylidene)-1-ethyl-6,8-difluoro-7-(3-methylpiperazin-1-yl)-4-oxo-1,4-dihydroquinoline-3-carbohydrazide] | 51.9 | 42.2 | 41.3 | 14.4 | 83.3 | 177 | 70.3 | 11.2 | 36.1 | 9.03 | 174 | 36 | 25.5 | 2.69 | 31.6 | 52.1 | 119 | 47.8 | 31.6 | 28.7 | LC50 [1]: 7.24 µM; GI50 [1]: 1.74 µM; inhibition at 10 µM [1]: > 47%; Log10 TGI _MID [1]: -5.46; inhibition at 10 µM (SF-268): 37.4%; inhibition at 10 µM (K-562): 113%; inhibition at 10 µM (OVCAR-3): 47.1%
CCn1cc(C(=O)NN=Cc2cccnc2)c(=O)c2cc(F)c(N3CCNC(C)C3)c(F)c21 (centres unmarked) [Compound 3d, 1-Ethyl-6,8-difluoro-7-(3-methylpiperazin-1-yl)-4-oxo-N'-(pyridin-3-ylmethylene)-1,4-dihydroquinoline-3-carbohydrazide] | 53.2 | 70 | 40 | 41.1 | 49 | 80.9 | 54.3 | 40.6 | 54.1 | 50.9 | 73.9 | 52.6 | 15.1 | 58.2 | 49.1 | 20.7 | 1.76 | 69.4 | 12.5 | 71.7 | inhibition at 10 µM (SF-268): 63%; inhibition at 10 µM (K-562): 71.9%; inhibition at 10 µM (OVCAR-3): 59.8%
CCn1cc(C(=O)NN=Cc2cccs2)c(=O)c2cc(F)c(N3CCNC(C)C3)c(F)c21 (centres unmarked) [Compound 3e, 1-Ethyl-6,8-difluoro-7-(3-methylpiperazin-1-yl)-4-oxo-N'-(thiophen-2-ylmethylene)-1,4-dihydroquinoline-3-carbohydrazide] | 52.6 | 56.2 | 137 | 11.5 | 7.77 | 177 | 32.8 | 27.6 | 32.2 | 10.2 | 117 | 22.2 | 14.7 | 24 | 23.7 | 16.5 | 75 | 30 | 33.2 | 33 | LC50 [1]: 7.24 µM; GI50 [1]: 1.82 µM; inhibition at 10 µM [1]: > 47%; Log10 TGI _MID [1]: -5.44; inhibition at 10 µM (SF-268): 20.9%; inhibition at 10 µM (K-562): 139%; inhibition at 10 µM (OVCAR-3): 31.3%
CCn1cc(C(=O)NN=Cc2cccc(F)c2)c(=O)c2cc(F)c(N3CCNC(C)C3)c(F)c21 (centres unmarked) [Compound 3b, 1-Ethyl-6,8-difluoro-N′-(3-fluorobenzylidene)-7-(3-methylpiperazin-1-yl)-4-oxo-1,4-dihydroquinoline-3-carbohydrazide] | 11.2 | 105 | 167 | 9.9 | 175 | 184 | 147 | 13.5 | 140 | 23.8 | 185 | 27.7 | 24.3 | 2.9 | 30.4 | 127 | 182 | 104 | 79.4 | 30.6 | LC50 [1]: 6.61 µM; GI50 [1]: 1.7 µM; inhibition at 10 µM [1]: > 47%; Log10 TGI _MID [1]: -5.47; inhibition at 10 µM (SF-268): 60.6%; inhibition at 10 µM (K-562): 152%; inhibition at 10 µM (OVCAR-3): 183%
